Data: patent US8865623B2, “Herbicidally active cyclic diones and derivatives thereof, processes for their preparation, compositions, and method of controlling weeds” (Syngenta Limited, priority 2009, dated 2014)

Experiments:
Format in all cases: in vivo
[1] = test system: Echinochloa crus-galli (ECHCG); experiment: Pre-emergence herbicidal activity, glasshouse pot test; conditions: Echinochloa crus-galli, 312 h; Rate 250 g/ha; pre-emergence spray; evaluated after 13 days; read-out: Pre-emergence activity ECHCG (100=total damage to plant; 0=no damage to plant)
Method in brief: (§1)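 After sowing in standard soil, pots were cultivated for one day (pre-emergence) or eight days (post-emergence), then sprayed. Plants were watered twice daily in the glasshouse, and damage was rated 13 days after treatment, 0 being none and 100 total.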

[2] = test system: Lolium perenne (LOLPE); experiment: as above; conditions: Lolium perenne, 312 h; Rate 250 g/ha; pre-emergence spray; evaluated after 13 days; read-out: Pre-emergence activity LOLPE (100=total damage to plant; 0=no damage to plant)
Method in brief: as §1

[3] = test system: Avena fatua (AVEFA); experiment: as above; conditions: Avena fatua, 312 h; Rate 250 g/ha; pre-emergence spray; evaluated after 13 days; read-out: Pre-emergence activity AVEFA (100=total damage to plant; 0=no damage to plant)
Method in brief: as §1

[4] = test system: Alopecurus myosuroides (ALOMY); experiment: as above; conditions: Alopecurus myosuroides, 312 h; Rate 250 g/ha; pre-emergence spray; evaluated after 13 days; read-out: Pre-emergence activity ALOMY (100=total damage to plant; 0=no damage to plant)
Method in brief: as §1

[5] = test system: Echinochloa crus-galli (ECHCG); experiment: Post-emergence herbicidal activity, glasshouse pot test; conditions: Echinochloa crus-galli, 312 h, rate 250 g/ha, evaluated after 13 days, glasshouse, read-out: Post-emergence activity ECHCG (100=total damage to plant; 0=no damage to plant)
Method in brief: as §1

[6] = test system: Lolium perenne (LOLPE); experiment: as above; conditions: Lolium perenne, 312 h, rate 250 g/ha, evaluated after 13 days, glasshouse, read-out: Post-emergence activity LOLPE (100=total damage to plant; 0=no damage to plant)
Method in brief: as §1

[7] = test system: Avena fatua (AVEFA); experiment: as above; conditions: Avena fatua, 312 h, rate 250 g/ha, evaluated after 13 days, glasshouse, read-out: Post-emergence activity AVEFA (100=total damage to plant; 0=no damage to plant)
Method in brief: as §1

[8] = test system: Alopecurus myosuroides (ALOMY); experiment: as above; conditions: Alopecurus myosuroides, 312 h, rate 250 g/ha, evaluated after 13 days, glasshouse, read-out: Post-emergence activity ALOMY (100=total damage to plant; 0=no damage to plant)
Method in brief: as §1

Row | Structure (SMILES) | pest or weed control at 250 g/ha [1] [%] | pest or weed control at 250 g/ha [2] [%] | pest or weed control at 250 g/ha [3] [%] | pest or weed control at 250 g/ha [4] [%] | pest or weed control at 250 g/ha [5] [%] | pest or weed control at 250 g/ha [6] [%] | pest or weed control at 250 g/ha [7] [%] | pest or weed control at 250 g/ha [8] [%]
1 | CCc1ccc(Oc2nc3c(Cl)c(OC)ccc3s2)cc1C1=C(O)C(C)(C)OC(C)(C)C1=O [Example A-216] | 70 | 10 | 0 | 30 | 80 | 70 | 70 | 60
2 | CCc1ccc(Oc2nc3cc(OC)ccc3s2)cc1C1=C(O)C(C)(C)OC(C)(C)C1=O [Example A-217] | 40 | 60 | 0 | 30 | 70 | 60 | 50 | 60
3 | CCc1ccc(Oc2nc3ccc(OC(F)(F)F)cc3s2)cc1C1=C(O)C(C)(C)OC(C)(C)C1=O [Example A-218] | 50 | 20 | 10 | 20 | 100 | 80 | 100 | 70
4 | CCc1ccc(Oc2nc3ccc(C(F)(F)F)cc3s2)cc1C1=C(O)C(C)(C)OC(C)(C)C1=O [Example A-219] | 90 | 80 | 30 | 50 | 100 | 90 | 100 | 90
5 | CCc1ccc(Oc2nc3cccc(C#N)c3s2)cc1C1=C(O)C(C)(C)OC(C)(C)C1=O [Example A-220] | 30 | 10 | 0 | 10 | 100 | 80 | 30 | 60
6 | CCc1ccc(Oc2nc3c(Cl)cc(Cl)cc3s2)cc1C1=C(O)C(C)(C)OC(C)(C)C1=O [Example A-221] | 70 | 60 | 40 | 60 | 100 | 90 | 50 | 80
7 | CCc1ccc(Oc2nc(F)c(Cl)c(OC)c2Cl)cc1C1=C(O)C(C)(C)OC(C)(C)C1=O [Example A-222] | 0 | 0 | 0 | 0 | 30 | 30 | 20 | 20
8 | CCc1ccc(Oc2ccc3ccccc3n2)cc1C1=C(O)C(C)(C)OC(C)(C)C1=O [Example A-223] | 100 | 90 | 50 | 80 | 100 | 90 | 60 | 100
9 | CCc1ccc(Oc2ccc(Cl)cc2C#N)cc1C1=C(O)C(C)(C)OC(C)(C)C1=O [Example A-224] | 20 | 30 | 10 | 20 | 70 | 70 | 50 | 50
10 | CCc1ccc(Oc2ccc(Br)cc2C#N)cc1C1=C(O)C(C)(C)OC(C)(C)C1=O [Example A-225] | 60 | 10 | 0 | 0 | 90 | 70 | 50 | 60
11 | CCc1ccc(Oc2ccc(Cl)cc2[N+](=O)[O-])cc1C1=C(O)C(C)(C)OC(C)(C)C1=O [Example A-226] | 60 | 30 | 10 | 0 | 100 | 60 | 60 | 60
12 | CCc1ccc(Oc2ccc(Br)cc2[N+](=O)[O-])cc1C1=C(O)C(C)(C)OC(C)(C)C1=O [Example A-227] | 80 | 60 | 20 | 30 | 90 | 70 | 60 | 70
13 | CCc1ccc(Oc2nc3cc(Cl)ccc3s2)cc1C1=C(O)C(C)(C)OC(C)(C)C1=O [Example A-229] | 70 | 60 | 0 | 30 | 100 | 100 | 10 | 90
14 | CCc1ccc(Oc2ccc(F)cc2[N+](=O)[O-])cc1C1=C(O)C(C)(C)OC(C)(C)C1=O [Example A-230] | 20 | 0 | 0 | 0 | 80 | 40 | 60 | 20
15 | CCc1ccc(Oc2cnc3cc(Cl)ccc3n2)cc1C1=C(O)CC2(CCOCC2)CC1=O [Example A-233] | 100 | 90 | 70 | 70 | 100 | 100 | 100 | 100
16 | CCc1ccc(Oc2ccc(Br)cc2)cc1C1=C(O)[C@@H]2CC[C@](C)(C1=O)C2(C)C [Example A-234] | 100 | 90 | 40 | 70 | 100 | 80 | 90 | 80
17 | CCc1ccc(Oc2ccc3cc(Cl)ccc3n2)cc1C1=C(O)[C@@H]2CC[C@](C)(C1=O)C2(C)C [Example A-235] | 100 | 70 | 30 | 50 | 100 | 100 | 100 | 90
18 | CCc1ccc(Oc2nc3ccc(Cl)cc3[n+]([O-])n2)cc1C1=C(O)C(C)(C)OC(C)(C)C1=O [Example A-236] | 80 | 20 | 20 | 40 | 100 | 30 | 100 | 100
19 | CCc1ccc(Oc2nnc3cc(Cl)ccc3n2)cc1C1=C(O)C(C)(C)OC(C)(C)C1=O [Example A-237] | 40 | 20 | 10 | 10 | 70 | 10 | 10 | 10
20 | CCc1ccc(Oc2ccc(Br)cc2F)cc1C1=C(O)[C@@H]2CC[C@](C)(C1=O)C2(C)C [Example A-238] | 100 | 90 | 40 | 60 | 100 | 90 | 90 | 70
21 | CCc1ccc(Oc2ccc(F)cc2)cc1C1=C(O)[C@@H]2CC[C@](C)(C1=O)C2(C)C [Example A-239] | 90 | 60 | 0 | 20 | 70 | 30 | 10 | 20
